According to patent US9688733B2, “Method for treating spinal cord injury using HMGB1 fragment” (GENOMIX CO., LTD, priority 2012, dated 2017):
“Also recorded” adds a separate entry of the source.

Tests used:
[1] = tested on: mouse bone marrow mesenchymal stem cell line (MSC-1 cell); assay: Migration-promoting activity in chemotaxis chamber; type: cell-based; details: MSC-1 cells; for migration-promoting activity: 100 μg/ml in lower chamber, positive control full-length mouse HMGB1 (1-215(HEK)), FIG. 1A
Protocol: The peptides listed below were custom synthesized using the solid phase method by Medical & Biological Laboratories (MBL). The peptides were synthesized based on the mouse HMGB1 sequence. Amino acid sequences from positions 1 to 169 of mouse HMGB1 and human HMGB1 are identical, i.e., shares 100% sequence homology.
the full-length mouse HMGB1 produced in HEK293 (1-215(HEK)) as a positive control were adjusted to 100 μg/ml and placed in the lower chamber of a chemotaxis chamber to assess the migration-promoting activity on mouse bone marrow mesenchymal stem cell line (MSC-1 cell; produced by Osaka University, Tamai et al., (Tamai et al., Proc Natl Acad Sci USA., 108(16): 6609-6614, 2011)). (Results)
As positive controls, centrifuged supernatant of the skin of a one-day-old mouse (one individual) incubated in PBS at 4° C. for 12 hours, and the full-length mouse HMGB1 produced in HEK293 (1-215(HEK)) were used. Cells of a bone marrow mesenchymal stem cell line (MSC-1) were placed in the upper chamber of a chemotaxis chamber, and the protein and synthetic peptides were added at a concentration of 5 μM or 10 μM to the lower chamber of the chemotaxis chamber. The migration assay was carried out by the same method as described above.

[2] = tested on: C57BL6/J mice with traumatic injury of the spinal cord; assay: Neurologic symptoms (Basso Mouse Scale score) in mice with traumatic injury of the spinal cord; type: in vivo; details: five daily administrations
From the text: (§1) Seven-week-old female C57BL6/J mice were used as test animals. After the mice were anesthetized by isoflurane inhalation, skin incision was made along the dorsal midline, and the vertebral arch of the ninth thoracic vertebra was exposed and excised. Dura mater was exposed at the same site, and the spinal cord was held epidurally for three seconds using a microneedle holder to produce a traumatic injury of the spinal cord. After generation of injury of the spinal cord, the skin was sutured. […] The assay reagent was prepared by diluting 100 μg of an HMGB1 fragment (amino acid sequence: amino acids of positions 11 to 44; synthesized peptide produced at MBL) in 200 μL of Dulbecco's PBS (D-PBS). 200 μL of D-PBS was used for the negative control. On the next day of operation, the first administration was performed through the tail vein, and this was followed by a total of five daily administrations. Neurologic symptoms were assessed using the Basso Mouse Scale (BMS) score on Days 1, 3, 7, 10, 14, 17, and 21 post operation.
Seven-week-old female C57BL6/J mice were used as test animals. After the mice were anesthetized by isoflurane inhalation, skin incision was made along the dorsal midline, and the vertebral arch of the ninth thoracic vertebra was exposed and excised. Dura mater was exposed at the same site, and the spinal cord was held epidurally for three seconds using a microneedle holder to produce a traumatic injury of the spinal cord. After production of injury of the spinal cord, the skin was sutured. […] An HMGB1 fragment (amino acid sequence: the amino acids of positions 11 to 44; synthetic peptide produced at MBL) was prepared by diluting 100 μg of the fragment in 200 μL of Dulbecco's PBS (D-PBS). The full-length HMGB1 protein was produced by expressing it in HEK293 as reported previously, and the purified HMGB1 (100 μg) was dissolved in 200 μL of D-PBS. 200 μL of D-PBS was used for the negative control. On the next day of operation, the first administration was performed through the tail vein, and this was followed by a total of five daily administrations. Neurologic symptoms were assessed using the BMS score on Days 1, 3, 7, and 14 post operation.
Seven-week-old female C57BL6/J mice were used as test animals. The mice were anesthetized by isoflurane inhalation, skin incision was made along the dorsal midline, and the vertebral arch of the ninth thoracic vertebra was exposed and excised. Dura mater was exposed at the same site, and the spinal cord was held epidurally for three seconds using a microneedle holder to produce a traumatic injury of the spinal cord. After production of injury of the spinal cord, the skin was sutured. […] HMGB1 fragments (amino acid sequences: amino acids from positions 11 to 44 and amino acids from positions 1 to 44; synthetic peptides produced at MBL) were prepared by diluting 100 μg of the fragment in 200 μL of D-PBS. 200 μL of D-PBS was used for the negative control. On the next day of operation, the first administration was performed via the tail vein, and this was followed by a total of five daily administrations. Neurologic symptoms were assessed using the BMS score on Days 1, 3, 7, 10, 14, 17, 21, and 28 post operation.

[3] = tested on: C57BL6/J mice with traumatic injury of the spinal cord; assay: HE staining of the damaged region of the spinal cord; type: in vivo, mouse; details: Example 2, 100 μg tail vein, five daily administrations, vs negative control (PBS), FIG. 2B
From the text: as §1

Molecule: synthetic peptide (1-34): synthetic peptide consisting of the amino acid sequence from positions 1 to 34 of HMGB1 (MGKGDPKKPRGKMSSYAFFVQTCREEHKKKHPDA; UniProt P63158 1-34, looked up, fragment)
- migration-promoting activity [1]: activity comparable to or higher than that of the positive control

Molecule: synthetic peptide (1-44): peptide consisting of the amino acids at positions 1 to 44 of the HMGB1 protein (SEQ ID NO: 5) (MGKGDPKKPRGKMSSYAFFVQTCREEHKKKHPDASVNFSEFSKK; Synthesized peptide from the HMGB1 protein)
- migration-promoting activity [1]: activity comparable to or higher than that of the positive control
- improvement of neurologic symptoms (BMS score) ([2]; Example 4, 100 μg tail vein, Days 1-28 post operation, vs PBS, FIG. 4, listed as 1-44): therapeutic effects were observed; also recorded: effective in treating injury of the spinal cord
- improvement of neurologic symptoms (BMS score) ([2]; Example 4, 100 μg tail vein, Days 1-28 post operation, vs PBS, FIG. 4, listed as HMGB1 fragment consisting of the amino acids from positions 1 to 44): comparable therapeutic effects

Molecule: synthetic peptide (11-25): synthetic peptide consisting of the amino acid sequence from positions 11 to 25 of HMGB1 (GKMSSYAFFVQTCRE; UniProt P63158 11-25, looked up, fragment)
- migration-promoting activity [1]: found to have the activity

Molecule: synthetic peptide (11-30): synthetic peptide consisting of the amino acid sequence from positions 11 to 30 of HMGB1 (GKMSSYAFFVQTCREEHKKK; UniProt P63158 11-30, looked up, fragment)
- migration-promoting activity [1]: activity comparable to or higher than that of the positive control

Molecule: synthetic peptide (11-34): synthetic peptide consisting of the amino acid sequence from positions 11 to 34 of HMGB1 (GKMSSYAFFVQTCREEHKKKHPDA; UniProt P63158 11-34, looked up, fragment)
- migration-promoting activity [1]: activity comparable to or higher than that of the positive control

Molecule: synthetic peptide (11-44): synthetic peptide consisting of the amino acid sequence from positions 11 to 44 of HMGB1 (SEQ ID NO: 4) (GKMSSYAFFVQTCREEHKKKHPDASVNFSEFSKK; Synthesized peptide from the HMGB1 protein)
- migration-promoting activity [1]: activity comparable to or higher than that of the positive control
- improvement of neurologic symptoms (BMS score) ([2]; Example 2, 100 μg in 200 μL D-PBS, tail vein, Days 1-21 post operation, vs PBS, FIG. 2A, listed as HMGB1 fragment): significant improvement of neurologic symptoms was observed from Day 3 post operation; also recorded: remarkable improvement of symptoms was observed on Days 3, 7, 14, and 17 post operation
- improvement of neurologic symptoms (BMS score) ([2]; Example 2, 100 μg in 200 μL D-PBS, tail vein, Days 1-21 post operation, vs PBS, FIG. 2A, listed as HMGB1 fragment (11-44)): significant effects of improving neurologic symptoms were observed
- improvement of neurologic symptoms (BMS score) ([2]; Example 3, 100 μg tail vein, Days 1, 3, 7, 14, fragment vs full-length vs PBS, FIG. 3, listed as HMGB1 fragment (amino acids at positions 11-44)): most effective; also recorded: much more satisfactory improvement of the therapeutic effect
- improvement of neurologic symptoms (BMS score) ([2]; Example 4, 100 μg tail vein, Days 1-28 post operation, vs PBS, FIG. 4): therapeutic effects were observed; also recorded: effective in treating injury of the spinal cord
- improvement of neurologic symptoms (BMS score) ([2]; Example 4, 100 μg tail vein, Days 1-28 post operation, vs PBS, FIG. 4, listed as HMGB1 fragment consisting of the amino acids from positions 11 to 44): comparable therapeutic effects
- size of damaged region of the spinal cord (HE staining) ([3]; listed as HMGB1 fragment (11-44)): size of the area of injury of the spinal cord decreased
- size of damaged region of the spinal cord (HE staining) ([3]; listed as HMGB1 fragment (11-44 peptide)): reduced

Molecule: synthetic peptide (17-25): synthetic peptide consisting of the amino acid sequence from positions 17 to 25 of HMGB1 (SEQ ID NO: 3) (AFFVQTCRE; Synthesized peptide from the HMGB1 protein)
- migration-stimulating activity ([1]; 5 μM or 10 μM in lower chamber, FIG. 1B): smallest fragment with migration-stimulating activity; also recorded: smallest fragment that has the migration-stimulating activity

B1: full-length HMGB1: full-length HMGB1 protein produced by expressing it in HEK293, purified; positive control / comparator (protein, UniProt P63158 1-215, looked up)
chain: MGKGDPKKPRGKMSSYAFFVQTCREEHKKKHPDASVNFSEFSKKCSERWKTMSAKEKGKFEDMAKADKARYEREMKTYIPPKGETKKKFKDPNAPKRPPSAFFLFCSEYRPKIKGEHPGLSIGDVAKKLGEMWNNTAADDKQPYEKKAAKLKEKYEKDIAAYRAKGKPDAAKKGVVKAEKSKKKKEEEDDEEDEEDEEEEEEEEDEDEEEDDDDE
modifications: full-length
notes: full-length HMGB1 protein produced by expressing it in HEK293, purified; positive control / comparator
- improvement of neurologic symptoms (BMS score) ([2]; Example 3, 100 μg tail vein, Days 1, 3, 7, 14, fragment vs full-length vs PBS, FIG. 3): intermediate between the effect in the HMGB1 fragment (amino acids at positions 11-44)-administered group and that in the negative control group
- improvement of neurologic symptoms (BMS score) ([2]; Example 3, 100 μg tail vein, Days 1, 3, 7, 14, fragment vs full-length vs PBS, FIG. 3, listed as HMGB1 (full-length)): therapeutic effect was observed; also recorded: not as effective as that in the HMGB1 fragment
